{"source": "paper PMC11576293", "about": "“New series of 4,6-diaryl pyrimidines: facile synthesis and antiproliferative activity as dual EGFR/VEGFR-2 inhibitors” (Frontiers in Chemistry, 2024)", "key": {"Bcl-2": {"test_system": "Bcl-2", "experiment": "Bcl-2 inhibition assay", "assay_type": "cell-based, human", "conditions": "A-549 cell line", "procedure": "4.2.8. Bcl-2 inhibition assay\nMix all reagents thoroughly without foaming before use. Wash the microwells twice with approximately 300 μL Wash Buffer per well with thorough aspiration of microwell contents between washes. Take caution not to scratch the surface of the microwells. After the last wash, empty the wells and tap microwell strips on absorbent pad or paper towel to remove excess Wash Buffer. Use the microwell strips immediately after washing or place upside down on a wet absorbent paper for not longer than 15 minutes. […] Add 100 μL of Sample […]\nDiluent in duplicate to all standard wells and to the blank wells. Prepare standard (1:2 dilution) in duplicate ranging from 32 ng/mL to 0.5 ng/mL. Add 100 μL of Sample Diluent, in duplicate, to the blank wells. Add 80 μL of Sample Diluent, in duplicate, to the sample wells. Add 20 μL of each Sample, in duplicate, to the designated wells. Add 50 μL of diluted biotin-conjugate to all wells, including the blank wells. Cover with a plate cover and incubate at room temperature, on a microplate shaker at 100 rpm if available, for 2 hours. Remove plate cover and empty the wells.\nWash microwell strips 3 times as described in step 2. Add 100 μL of diluted Streptavidin-HRP to all wells, including the blank wells. Cover with a plate cover and incubate at room temperature, on a microplate shaker at 100 rpm if available, for 1 hour. Remove plate cover and empty the wells.\nWash microwell strips 3 times as described in step 2. Proceed to the next step. Pipette 100 μl of mixed TMB Substrate Solution to all wells, including the blanks. Incubate the microwell strips at room temperature (18° to 25°C) for about 15 minutes, if available on a rotator set at 100 rpm.\nAvoid direct exposure to intense light. The point, at which the substrate reaction is stopped, is often determined by the ELISA reader. Many ELISA readers record absorbance only up to 2.0\nO.D. Therefore, the color development within individual microwells must be watched by the person running the assay and the substrate reaction stopped before positive wells are no longer properly detectable. Stop the enzyme reaction by quickly pipetting 100 μL of Stop Solution into each well, including the blank wells. It is important that the Stop Solution is spread quickly and uniformly throughout the microwells to completely inactivate the enzyme. Results must be read immediately after the Stop Solution is added or within one hour i f the microwell strips are stored at 2 - 8°C in the dark. Read absorbance of each microwell on a spectrophotometer using 450 nm as the primary wavelength."}, "A-549 cancer cells": {"test_system": "A-549 cancer cells", "experiment": "Wound healing assay (migration, wound closure)", "assay_type": "cell-based, human", "conditions": "A-549 cells", "procedure": "Wound healing assay is a simple, reproducible, and non-expensive method to study cancer cell migration in vitro ([Rodriguez et al., 2005]). We investigated the wound-healing activities of compounds 22 and 29 in A-549 cancer cells. […] Furthermore, the wound closure percentage achieved 100% after 72 h of treatment with a compound 22, whereas it reached only 80% with a compound 29."}, "[1]": {"test_system": "MCF-7 Breast Adenocarcinoma cell line", "experiment": "Wound healing assay (supplement, Table S3)", "assay_type": "cell-based", "conditions": "for Migration rate: Rm=Wi−Wf / t", "procedure": "4.3. Wound Healing Assay of MCF-7 Breast Adenocarcinoma\nMCF-7 Breast Adenocarcinoma cell line was obtained from Nawah Scientific Inc., (Mokatam, Cairo, Egypt). Cells were maintained in DMEM media supplemented with […] of streptomycin, 100 units/mL of penicillin and 10% of heat-inactivated fetal bovine serum in humidified, 5% (v/v) CO2 atmosphere at 37 °C.\n4.3.2. Wound healing assay\nCells were plated at a density of 2x10^5/well onto a coated 12-well plate for scratch wound assay and cultured overnight in 5% FBS-DMEM at 37 °C and 5% CO2. On the next day, horizontal scratches were introduced into the confluent monolayer; the plate was washed thoroughly with PBS, control wells were replenished with fresh medium while drug wells were treated with fresh media containing drug 26 and 27. Images were taken using an inverted microscope at the indicated time intervals. The plate was incubated at 37 °C and 5% CO2 in-between time points. The acquired […]\n4.4. Wound Healing Assay Calculations\nWound width can be calculated as the average distance between the edges of the scratches; the wound width decreases as cell migration is induced. The results of compounds 26 and 27 were […]\nMigration rate is calculated by dividing the time spent in migration according to the following"}}, "data": [{"compound": "COc1ccc(CSc2nc(-c3ccc(OC)cc3)cc(-c3cccc(OC)c3)n2)cc1", "note": "[Compound 22, 2-(4-Methoxybenzylthio)-6-(3-methoxyphenyl)-4-(4-methoxyphenyl)pyrimidine]", "values": [{"measurement": "Bcl-2 Conc", "setting": "Bcl-2", "value": 0.90, "unit": "ng/mL"}, {"measurement": "Wound closure % 24 h", "setting": "A-549 cancer cells", "value": 25, "unit": "%"}, {"measurement": "Wound closure % 48 h", "setting": "A-549 cancer cells", "value": 50, "unit": "%"}, {"measurement": "Wound closure % 72 h", "setting": "A-549 cancer cells", "value": 100, "unit": "%"}]}, {"compound": "COc1ccc(-c2cc(-c3ccc(Cl)cc3)nc(SC(C)C)n2)cc1OC", "note": "[Compound 26, 4-(4-Chlorophenyl)-2-(isopropylthio)-6-(3,4-dimethoxyphenyl)pyrimidine]", "values": [{"measurement": "Wound Width ±SD 0 h", "setting": "[1]", "value": "1.01±0.02", "unit": "mm"}, {"measurement": "Wound Width ±SD 24 h", "setting": "[1]", "value": "0.76±0.04", "unit": "mm"}, {"measurement": "Wound closure % 24 h", "setting": "[1]", "value": 25, "unit": "%"}, {"measurement": "Wound Width ±SD 48 h", "setting": "[1]", "value": "0.51±0.03", "unit": "mm"}, {"measurement": "Wound closure % 48 h", "setting": "[1]", "value": 49.7, "unit": "%"}, {"measurement": "Wound Width ±SD 72 h", "setting": "[1]", "value": 0, "unit": "mm"}, {"measurement": "Wound closure % 72 h", "setting": "[1]", "value": 100, "unit": "%"}, {"measurement": "Migration rate", "setting": "[1]", "value": 0.013}]}, {"compound": "C=CCSc1nc(-c2ccc(Cl)cc2)cc(-c2ccc(OC)c(OC)c2)n1", "note": "[Compound 27, 2-(Allylthio)-4-(4-chlorophenyl)-6-(3,4-dimethoxyphenyl)pyrimidine]", "values": [{"measurement": "Wound Width ±SD 0 h", "setting": "[1]", "value": "1±0.02", "unit": "mm"}, {"measurement": "Wound Width ±SD 24 h", "setting": "[1]", "value": "0.88±0.03", "unit": "mm"}, {"measurement": "Wound closure % 24 h", "setting": "[1]", "value": 11.3, "unit": "%"}, {"measurement": "Wound Width ±SD 48 h", "setting": "[1]", "value": "0.66±0.03", "unit": "mm"}, {"measurement": "Wound closure % 48 h", "setting": "[1]", "value": 34, "unit": "%"}, {"measurement": "Wound Width ±SD 72 h", "setting": "[1]", "value": "0.2±0.18", "unit": "mm"}, {"measurement": "Wound closure % 72 h", "setting": "[1]", "value": 80, "unit": "%"}, {"measurement": "Migration rate", "setting": "[1]", "value": 0.011}]}, {"compound": "COc1ccc(CSc2nc(-c3ccc(Cl)cc3)cc(-c3ccc(OC)c(OC)c3)n2)cc1", "note": "[Compound 29, 2-(4-Methoxybenzylthio)-4-(4-chlorophenyl)-6-(3,4-dimethoxyphenyl)pyrimidine]", "values": [{"measurement": "Bcl-2 Conc", "setting": "Bcl-2", "value": 1.15, "unit": "ng/mL"}, {"measurement": "Bcl-2 Fold reduction", "setting": "Bcl-2; versus control", "value": 5, "unit": "fold"}, {"measurement": "Wound closure % 24 h", "setting": "A-549 cancer cells", "value": 11, "unit": "%"}, {"measurement": "Wound closure % 48 h", "setting": "A-549 cancer cells", "value": 34, "unit": "%"}, {"measurement": "Wound closure % 72 h", "setting": "A-549 cancer cells", "value": 80, "unit": "%"}]}]}
